Data as given in BindingDB's records for doi:10.1021/jm00039a019 (Zeria Pharmaceutical, 1994).

Biological target: Prolyl endopeptidase (Canis familiaris)
Test: In vitro inhibitory activity against purified prolyl endopeptidase (PEP) from canine brain.

O=C[C@@H]1CSCN1C(=O)[C@@H]1CSCN1C(=O)C[C@H]1CCc2ccccc2C1 [(R)-3-[(R)-3-((S)-2-1,2,3,4-Tetrahydro-naphthalen-2-yl-acetyl)-thiazolidine-4-carbonyl]-thiazolidine-4-carbaldehyde]
IC50: 0.85 nM

CC(C)c1ccc(C(=O)c2cccs2)c(SCCCCCCCCN(C)C)n1 [[2-(8-Dimethylamino-octylsulfanyl)-6-isopropyl-pyridin-3-yl]-thiophen-2-yl-methanone]
IC50: 3500 nM
